Assay results reported in patent publication US20200000766A1, “COMPOSITIONS AND METHODS FOR AGONIZING THE CB2 RECEPTOR” (priority 2018, published 2020).

What was measured:
human CB2 [1] = biological target: T1, human CB2 (Homo sapiens, UniProt P34972); assay: Cannabinoid Receptor 2 (CB2) activity, calcium FLIPR assay in CHO-K1 cells co-expressing human CB2 and G15; settings: FIG. 1 and FIG. 2
[2] = system: transient receptor potential (TRP) channels; settings: cited from earlier work
human CB2 [3] = biological target: T1, human CB2; design: expressed in transfected cells; settings: cited from earlier work

T1 sequence (P34972 whole entry): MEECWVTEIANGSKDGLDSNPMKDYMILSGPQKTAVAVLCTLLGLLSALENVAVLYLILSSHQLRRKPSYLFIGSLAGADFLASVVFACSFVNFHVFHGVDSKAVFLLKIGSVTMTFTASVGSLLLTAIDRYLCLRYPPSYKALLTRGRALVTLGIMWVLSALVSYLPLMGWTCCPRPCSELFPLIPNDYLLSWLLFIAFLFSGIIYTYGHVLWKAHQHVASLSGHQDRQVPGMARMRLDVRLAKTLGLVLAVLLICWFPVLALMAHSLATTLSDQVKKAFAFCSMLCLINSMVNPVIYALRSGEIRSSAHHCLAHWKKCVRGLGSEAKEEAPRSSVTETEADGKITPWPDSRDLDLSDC

SMILES | agonist potency at the human CB2 receptor compared with other phytocannabinoid agonists (CBD, CBCV) (human CB2 [1]) | potency at human CB2 receptor relative to CBD (human CB2 [1]; two independent experiments) | agonism at several TRP channels [2] | agonism at the CB2 receptor (known) (human CB2 [3])
CCCCCc1cc(O)c2c(c1)OC(C)(CCC=C(C)C)C=C2 (stereo not shown) [CBC, cannabichromene] | more potent agonist | at least 4 fold | known agonist at several transient receptor potential (TRP) channels, albeit somewhat weakly | 
C=C(C)[C@@H]1CCC(C)=C[C@H]1c1c(O)cc(CCCCC)cc1O [CBD, cannabidiol] |  |  |  | known agonist
